The source of these data is PMC4269296 (Nucleosides, nucleotides & nucleic acids, 2015).

The test system of data set [1] is R5 (BaL) HIV-1. The experiment in a line: Single-round. The conditions noted are these: Human immunodeficiency virus 1, BAL, MAGI, read-out: Cell-Free Virus R5 EC50. It is filed as cell-based.
Data set [2] in a line: in vitro. The conditions noted are these: human.
Data set [3] has as its system X4 (IIIB) HIV-1. The experiment in a line: Single-round. The class given is cell-based. The conditions noted are these: Human immunodeficiency virus 1, IIIB, MAGI, read-out: Cell-Free Virus X4 EC50.
The test system of data set [4] is Cell-Associated Virus (X4). The experiment in a line: Cell-associated transmission assay. It is filed as cell-based, HIV-1. The conditions noted are these: for EC50: Human immunodeficiency virus 1, read-out: Cell-Associated Virus CTC EC50; for Cell-Associated Virus CTC EC50: cell-associated transmission assay (X4).
The subject of data set [5] is X4 and R5 cell free virus. The class given is cell-based, HIV-1. The conditions noted are these: for EC50: Human immunodeficiency virus 1, read-out: EC50 against X4 and R5 cell free virus.
Data set [6] relates to HIV infected T4 lymphocytes. The conditions noted are these: read-out: EC50 against HIV infected T4 lymphocytes; cited from earlier work.

Structures are written as SMILES.

In general, EC50 refers to the midpoint of the concentration-response curve. As to `Nc1ccn([C@@H]2CS[C@H](CO)O2)c(=O)n1` [3TC (2), (−)-2′,3′-Dideoxy-3′-thiacytidine], the EC50 is 2.6 µM in data set [1], 7.5 µM in data set [3], 18.4 µM in data set [4] and 2.6 to 7.5 µM in data set [5]. The compound also gave an EC50 at 2 h in data set [2] greater than 100 µM.

Take `CCSCCCCCCCCCCCC(=O)O` [12-Thioethyldodecanoic acid]: the EC50 in data set [6] was 9.4 µM.

In the case of `N=C(N)NCCC[C@H](NC(=O)[C@H](CCCNC(=N)N)NC(=O)[C@H](CCCNC(=N)N)NC(=O)[C@H](CCCNC(=N)N)NC(=O)[C@H](CCCNC(=N)N)NC(=O)[C@H](CCCNC(=N)N)NC(=O)[C@H](CCCNC(=N)N)NC(=O)CCCCCCCCCCCCC(=O)OC[C@@H]1O[C@H](n2ccc(N)nc2=O)CS1)C(=O)O` [Compound 14, 1-[(−)-2′,3′-Dideoxy-3′-thiacytidine]tetradecan-1,14-dioate conjugate of PolyArg], in data set [4], the “Cell-Associated Virus CTC EC50” value was greater than 30 µM. Moreover, the “fold higher inhibition against X4 virus than the R5 virus strain” value in data set [5] (ratio of R5 and X4 EC50) is reported as “approximately 2 fold”.

Turning to `N=C(N)NCCC[C@H](NC(=O)[C@H](CCCNC(=N)N)NC(=O)[C@H](CCCNC(=N)N)NC(=O)[C@H](CCCNC(=N)N)NC(=O)[C@H](CCCNC(=N)N)NC(=O)[C@H](CCCNC(=N)N)NC(=O)[C@H](CCCNC(=N)N)NC(=O)CCCCCCCCCCCCC(=O)OC[C@@H]1O[C@H](n2cc(F)c(N)nc2=O)CS1)C(=O)O` [Compound 15, 1-[(−)-2′,3′-dideoxy-5-fluoro-3′-thiacytidine]tetradecan-1,14-dioate conjugate of PolyArg], the “Cell-Associated Virus CTC EC50” value in data set [4] is greater than 30 µM.

`Cc1cn([C@H]2C[C@H](F)[C@@H](CO)O2)c(=O)[nH]c1=O` [FLT (1), 3′-Fluoro-2′,3′-deoxythymidine]: the half-maximal effective concentration (EC50) in data set [1] is 0.1 µM; in data set [3] it was 0.2 µM; in data set [4], greater than 100 µM; in data set [5], 0.1 to 0.2 µM. This compound also had an EC50 at 2 h in data set [2] greater than 100 µM.

The compound `Nc1nc(=O)n([C@@H]2CS[C@H](CO)O2)cc1F` [FTC (3), (−) 2′,3′–Dideoxy-5-fluoro-3′-thiacytidine] displayed an EC50 at 2 h in data set [2] greater than 100 µM. Besides, the EC50 in data set [4] is 21.9 µM; in data set [5], 0.18 to 0.48 µM.
